Measured values as given in ChEMBL document CHEMBL5321276, “Novel Benzimidazoles as Potent Small-Molecule Inhibitors and Degraders of V-Domain Ig Suppressor of T-Cell Activation (VISTA)” (J Med Chem, 2023).
The source made the active and inactive calls. No cut-off for these calls is given here.

Legend:
[1] = biological target: T1, V-type immunoglobulin domain-containing suppressor of T-cell activation (Homo sapiens, UniProt Q9H7M9); assay: Binding affinity to human VISTA assessed as dissociation constant by SPR assay
T1 sequence (Q9H7M9 whole entry): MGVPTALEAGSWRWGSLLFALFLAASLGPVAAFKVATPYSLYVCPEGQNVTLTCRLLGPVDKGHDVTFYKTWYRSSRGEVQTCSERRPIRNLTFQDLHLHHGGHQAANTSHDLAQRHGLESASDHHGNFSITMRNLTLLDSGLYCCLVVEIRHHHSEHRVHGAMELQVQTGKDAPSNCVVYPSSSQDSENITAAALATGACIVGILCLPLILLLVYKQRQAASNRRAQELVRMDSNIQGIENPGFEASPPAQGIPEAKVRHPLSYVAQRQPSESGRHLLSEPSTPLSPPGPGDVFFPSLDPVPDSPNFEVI

[2] = biological target: T2, V-type immunoglobulin domain-containing suppressor of T-cell activation (Homo sapiens) (UniProt Q9H7M9); assay: Inhibition of Fc fused VISTA in CD3/CD28/CD2 T cell activator stimulated human PBMC cells assessed as induction of IFN-gamma secretion at 5 to 10 uM measured after 48 hrs by ELISA assay; assay type: cell-based; conditions: dose 5-10 µM
T2 sequence (whole entry): T1 sequence (Q9H7M9 whole entry)

HepG2 [3] = assay: Induction of autophagy in human HepG2 cells assessed as induction of VISTA degradation at 5 uM by Western blotting analysis; assay type: functional, cell-based
CT26 [4] = assay: Antitumor activity against mouse CT26 cells implanted in BALB/c mouse assessed as reduction in tumor growth at 60 mg/kg, po administered once daily for 15 days; assay type: functional, organism-based; conditions: time 15.0 day
[5] = Oral bioavailability in Sprague-Dawley rat at 25 mg/kg measured upto 24 hrs by LC-MS/MS analysis; assay type: ADME, organism-based; conditions: in vivo
MDA-MB-231 [6] = assay: Antitumor immunity against human MDA-MB-231 cells cocultured with CD3/CD28/CD2 T cell activator stimulated human PBMC cells assessed as reduction in cell growth by measuring LDH release pre-treated with compound for 2 hrs measured after 12 hrs; assay type: functional, cell-based; conditions: dose 0.313-5 µM, time 14.0 hrs
PBMC = assay: Cytotoxicity against human PBMC cells assessed as reduction in cell viability at 5 uM; assay type: toxicity, cell-based
MDA-MB-231 [7] = assay: Cytotoxicity against human MDA-MB-231 cells assessed as reduction in cell viability at 5 uM; assay type: toxicity, cell-based; conditions: mda-mb-231, 5 µM
HepG2 [8] = assay: Induction of autophagy in human HepG2 cells assessed as induction of VISTA degradation measured after 24 hrs by Western blotting analysis; assay type: functional, cell-based; conditions: dose 5-10 µM
HepG2 [9] = assay: Induction of autophagy in human HepG2 cells assessed as induction of VISTA degradation at 10 uM measured upto 4 hrs in presence of cycloheximide by Western blotting analysis; assay type: functional, cell-based
HepG2 [10] = assay: Induction of autophagy in human HepG2 cells assessed as induction of VISTA degradation at 10 uM measured after 24 hrs in presence of pepstatin A by Western blotting analysis; assay type: functional, cell-based
HepG2 [11] = assay: Induction of autophagy in human HepG2 cells assessed as induction of VISTA degradation at 10 uM measured after 24 hrs in presence of 3-MA by Western blotting analysis; assay type: functional, cell-based
HepG2 [12] = assay: Induction of autophagy in human HepG2 cells assessed as induction of VISTA degradation at 10 uM measured after 24 hrs in presence of chloroquine by Western blotting analysis; assay type: functional, cell-based
HepG2 [13] = assay: Induction of autophagy in human HepG2 cells assessed as induction of VISTA degradation at 10 uM measured after 24 hrs in presence of MG132 by Western blotting analysis; assay type: functional, cell-based
HepG2 [14] = assay: Induction of autophagy in human HepG2 cells assessed as increase in LC3II expression at 10 uM measured after 24 hrs in presence of chloroquine by Western blotting analysis; assay type: functional, cell-based
HepG2 [15] = assay: Induction of autophagy in human HepG2 cells harboring adenovirus-mCherry-GFP-LC3B assessed as increase in LC3 puncta accumulation measured after 24 hrs by inverted fluorescence microscopic analysis; assay type: functional, cell-based; conditions: dose 5-10 µM
[16] = biological target: T3, V-type immunoglobulin domain-containing suppressor of T-cell activation (Mus musculus, UniProt Q9D659); assay: Binding affinity to mouse VISTA assessed as dissociation constant incubated for 10 mins by MST assay
T3 sequence (Q9D659 whole entry): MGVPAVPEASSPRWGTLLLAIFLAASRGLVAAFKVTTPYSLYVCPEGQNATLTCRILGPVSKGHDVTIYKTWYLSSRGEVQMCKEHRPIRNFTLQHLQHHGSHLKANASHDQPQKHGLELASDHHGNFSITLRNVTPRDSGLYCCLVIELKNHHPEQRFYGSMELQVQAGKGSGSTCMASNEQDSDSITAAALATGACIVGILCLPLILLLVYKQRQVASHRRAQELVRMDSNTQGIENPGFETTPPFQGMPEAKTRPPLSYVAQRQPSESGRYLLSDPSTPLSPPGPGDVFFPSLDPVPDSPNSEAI

CT26 [17] = assay: Antitumor activity against mouse CT26 cells implanted in BALB/c mouse assessed as tumor growth inhibition at 30 mg/kg, po administered once daily for 15 days; assay type: functional; conditions: CT26, 360 h, time 15 day, read-out: TGI
CT26 [18] = assay: Antitumor activity against mouse CT26 cells implanted in BALB/c mouse assessed as tumor growth inhibition at 60 mg/kg, po administered once daily for 15 days; assay type: functional; conditions: CT26, 360 h, time 15 day, read-out: TGI
CT26 [19] = assay: Antitumor activity against mouse CT26 cells implanted in BALB/c mouse assessed as tumor growth inhibition at 120 mg/kg, po administered once daily for 15 days; assay type: functional; conditions: CT26, 360 h, time 15 day, read-out: TGI
[20] = Toxicity in BALB/c mouse implanted with mouse CT26 cells assessed as reduction in body weight at 30 to 120 mg/kg, po administered once daily for 15 days; assay type: organism-based; conditions: in vivo, 360 h, dose 30-120 mg/kg, time 15 day
[21] = Toxicity in BALB/c mouse implanted with mouse CT26 cells assessed as mortality at 30 to 120 mg/kg, po administered once daily for 15 days; assay type: organism-based; conditions: in vivo, 360 h, dose 30-120 mg/kg, time 15 day
CT26 [22] = assay: Antitumor activity against po dosed mouse CT26 cells implanted in BALB/c mouse assessed as increase in infiltration of CD8 positive cells in tumor administered once daily for 15 days by DAPI staining based fluorescent inverted microscopic analysis; assay type: functional, organism-based; conditions: dose 30-120 mg/kg, time 15.0 day
CT26 [23] = assay: Antitumor activity against mouse CT26 cells implanted in BALB/c mouse assessed as induction of VISTA degradation in tumor at 30 to 120 mg/kg, po administered once daily for 15 days by Western blotting analysis; assay type: functional, organism-based; conditions: dose 30-120 mg/kg, time 15.0 day
CT26 [24] = assay: Antitumor activity against mouse CT26 cells implanted in BALB/c mouse assessed as tumor shrinkage at 30 to 120 mg/kg, po administered once daily for 15 days by Hematoxylin and eosin based analysis; assay type: functional, organism-based; conditions: dose 30-120 mg/kg, time 15.0 day
CT26 [25] = assay: Antitumor activity against mouse CT26 cells implanted in BALB/c mouse assessed as tumor growth delay at 30 to 120 mg/kg, po administered once daily for 15 days by Hematoxylin and eosin based analysis; assay type: functional, organism-based; conditions: dose 30-120 mg/kg, time 15.0 day
CT26 [26] = assay: Antitumor activity against po dosed mouse CT26 cells implanted in BALB/c mouse assessed as reduction in tumor growth administered once daily for 15 days; assay type: functional, organism-based; conditions: dose 30-120 mg/kg, time 15.0 day

SMILES: Cc1c(-c2ccccc2)ccc2nc(-c3cccc(CNCC(=O)O)c3)[nH]c12
- Kd [1]: 1050 nM

SMILES: CC(=O)NCCNCc1ccc(-c2nc3ccc(-c4ccccc4)c(C)c3[nH]2)cc1
- Kd [1]: 374 nM
- inhibition [2]: Active

SMILES: Cc1c(-c2ccccc2)ccc2nc(-c3cccc(CNCC[C@@H]4CCC(=O)N4)c3)[nH]c12
- Kd [1]: 763 nM

SMILES: C[C@@H](O)[C@H](NC(=O)N[C@@H](CC(N)=O)c1nc([C@@H](N)CO)no1)C(=O)O
- Activity (HepG2 [3]): inactive
- Activity (CT26 [4]): Active

SMILES: Cc1c(-c2ccccc2)ccc2nc(-c3ccc(CNCCO)cc3)[nH]c12
- Kd [1]: 1130 nM

SMILES: CC(=O)NCCNCc1cccc(-c2nc3ccc(-c4ccccc4)c(C)c3[nH]2)c1
- Kd [1]: 187 nM
- inhibition [2]: Active

SMILES: Cc1c(-c2ccccc2)ccc2nc(-c3cccc(CNC[C@H](O)CC(=O)O)c3)[nH]c12
- Kd [1]: 1780 nM

SMILES: Cc1c(-c2ccccc2)ccc2nc(-c3cccc(CNCCO)c3)[nH]c12
- bioavailability [5]: 16%
- inhibition [2]: Active
- Activity (MDA-MB-231 [6]): Dose-Dependent Effect
- Activity (PBMC): Non-Toxic
- Activity (MDA-MB-231 [7]): Non-Toxic
- Activity (HepG2 [8]): Dose-Dependent Effect
- Activity (HepG2 [3]): Active
- Activity (HepG2 [9]): Active
- Activity (HepG2 [10]): inactive
- Activity (HepG2 [11]): inactive
- Activity (HepG2 [12]): inactive
- Activity (HepG2 [13]): Active
- Activity (HepG2 [14]): Active
- Activity (HepG2 [15]): Dose-Dependent Effect
- Kd [16]: 6800 nM
- inhibition in vivo at 30 mg/kg (CT26 [17]): 29%
- inhibition in vivo at 60 mg/kg (CT26 [18]): 41%
- inhibition in vivo at 120 mg/kg (CT26 [19]): 59%
- Activity [20]: Non-Toxic
- Activity [21]: Non-Toxic
- Activity (CT26 [22]): Dose-Dependent Effect
- Activity (CT26 [23]): Active
- Activity (CT26 [24]): Active
- Activity (CT26 [25]): Active
- Activity (CT26 [26]): Dose-Dependent Effect

SMILES: Cc1c(-c2ccccc2)ccc2nc(-c3cccc(CNCCN)c3)[nH]c12
- Kd [1]: 491 nM

SMILES: CC(=O)NCCNCc1cccc(-c2nc3cccc(C)c3[nH]2)c1
- Kd [1]: 3120 nM

SMILES: CC(=O)NCCNCc1cccc(-c2nc3ccc(Br)c(C)c3[nH]2)c1
- Kd [1]: 1160 nM
